Assay results taken from patent US20180072997A1, “INHIBITORS OF HUMAN IMMUNODEFICIENCY VIRUS REPLICATION” (ViiV HEATHCARE UK (NO.5) LIMITED, priority 2015, published 2018).

Tests used:
[1] = Compound cytotoxicity, XTT-based colorimetric assay; format: cell-based; conditions: human, uninfected MT2 cells, day 4, XTT
Method: Compound cytotoxicity and the corresponding CC50 values were determined using the same protocol as described in the antiviral assay except that uninfected cells were used. Cytotoxicity was assessed on day 4 in uninfected MT2 cells by using a XTT (2,3-bis[2-Methoxy-4-nitro-5-sulfophenyl]-2H-tetrazolium-5-carboxyanilide inner salt)-based colorimetric assay (Sigma-Aldrich, St Louis, Mo.).

[2] = system: recombinant NL4-3 virus (Renilla luciferase in nef) in MT-2 cells; assay: whole plant or invertebrate; format: cell-based, HIV; conditions: luciferase activity
Method: HIV cell culture assay—MT-2 cells, 293T cells and the proviral DNA clone of NL4-3 virus were obtained from the NIH AIDS Research and Reference Reagent Program. MT-2 cells were propagated in RPMI 1640 media supplemented with 10% heat inactivated fetal bovine serum (FBS), 100 μg/ml penicillin G and up to 100 units/mL streptomycin. The 293T cells were propagated in DMEM media supplemented with 10% heat inactivated FBS, 100 μg/mL penicillin G and 100 μg/mL streptomycin. A recombinant NL4-3 proviral clone, in which a section of the nef gene was replaced with the Renilla luciferase gene, was used to make the reference virus used in these studies. The recombinant virus was prepared through transfection of the recombinant NL4-3 proviral clone into 293T cells using Transit-293 Transfection Reagent from Mirus Bio LLC (Madison, Wis.). Supernatent was harvested after 2-3 days and the amount of virus present was titered in MT-2 cells using luciferase enzyme activity as a marker by measuring luciferase enzyme activity. Luciferase was quantitated using the EnduRen Live Cell Substrate from Promega (Madison, Wis.). Antiviral activities of compounds toward the recombinant virus were quantified by measuring luciferase activity in MT-2 cells infected for 4-5 days with the recombinant virus in the presence of serial dilutions of the compound.
(Johnson V A, Byington R T. Infectivity Assay. In Techniques in HIV Research. ed. Aldovini A, Walker BD. 71-76. New York: Stockton Press.1990).

[3] = Renilla, NL43, MT-2 cells infected for 4-5 days with recombinant NL4-3 Renilla luciferase virus
[4] = MT-2 cells infected for 4-5 days with recombinant NL4-3 Renilla luciferase virus

SMILES | CC50 at 4 days [1] | EC50 [2, 3] | EC50 [2, 4]
CN(C(=O)[C@H](Cc1cc(F)cc(F)c1)NC(=O)NS(=O)(=O)N[C@@H](Cc1cc(F)cc(F)c1)C(=O)N(C)c1ccc(OC(F)F)nc1)c1ccc(OC(F)F)nc1 [Example 214] | 43.8 µM | 0.01 µM | –
Cc1cc(N(C)C(=O)[C@H](Cc2ccccc2)NC(=O)NS(=O)(=O)N[C@@H](Cc2ccccc2)C(=O)N(C)c2ccc(F)c(C)c2)ccc1F [Example 229] | 64.7 µM | 2.64 µM | –
C=CCN(C(=O)[C@H](Cc1cc(F)cc(F)c1)NC(=O)c1ccccc1S(=O)(=O)N[C@@H](Cc1cc(F)cc(F)c1)C(=O)N(CC=C)c1ccc(OC)cc1)c1ccc(OC)cc1 [Example 210] | ≥ 100 µM | 10.1 µM | –
CN(C(=O)[C@H](Cc1cc(F)cc(F)c1)NC(=O)NS(=O)(=O)N[C@@H](Cc1cc(F)cc(F)c1)C(=O)N(C)c1ccc2snnc2c1)c1ccc2snnc2c1 [Example 177] | 88 µM | 0.27 µM | –
COc1ccc(N(C)C(=O)[C@H](Cc2ccccc2)NS(=O)(=O)NC(=O)N[C@@H](Cc2ccccc2)C(=O)N(C)c2ccc3scnc3c2)cc1 [Example 35] | 99.9 µM | 0.03 µM | –
COc1ccc(N(C)C(=O)[C@H](Cc2ccccc2)NC(=O)C=C(C)CC(=O)N[C@@H](Cc2ccccc2)C(=O)N(C)c2ccc(OC)cc2)cc1 (single isomer, unassigned) [Example 113] | 25.3 µM | – | 0.36 µM
COc1ccc(N(C)C(=O)[C@H](Cc2ccccc2)Nc2ccnc(N[C@@H](Cc3ccccc3)C(=O)N(C)c3ccc(OC)cc3)n2)cc1 [Example 145] | 19.1 µM | 12 µM | –
C=CCCN(C(=O)[C@H](Cc1cc(F)cc(F)c1)NS(=O)(=O)NC(=O)N[C@@H](Cc1cc(F)cc(F)c1)C(=O)N(CC=C)c1ccc(OC)cc1)c1ccc(OC)cc1 [Example 123] | 19.2 µM | 0.38 µM | –
CN(C(=O)[C@H](Cc1ccccc1)NC(=O)NS(=O)(=O)N[C@@H](Cc1ccccc1)C(=O)N(C)c1ccc(C(C)(C)C)cc1)c1ccc(C(C)(C)C)cc1 [Example 167] | 26.5 µM | 0.27 µM | –
CN(C(=O)[C@H](Cc1ccccc1)Nc1nccc(-c2ccnc(N[C@@H](Cc3ccccc3)C(=O)N(C)c3ccc4scnc4c3)n2)n1)c1ccc2scnc2c1 [Example 135] | 0.5 µM | 0.09 µM | –
COc1ccc(N(C)C(=O)[C@H](Cc2ccccc2)NC(=O)C2CCCCC2C(=O)N[C@@H](Cc2ccccc2)C(=O)N(C)c2ccc(OC)cc2)cc1 (mixture of isomers) [Example 53] | ≥ 33.3 µM | 0.34 µM | –
COc1ccc(N(C)C(=O)[C@H](Cc2cc(F)cc(F)c2)NC(=O)Cn2c(=O)n(CC(=O)N[C@@H](Cc3cc(F)cc(F)c3)C(=O)N(C)c3ccc(OC)cc3)c3cc(OC)ccc32)cc1 [Example 84] | 6.9 µM | 0.04 µM | –
COc1ccc(N(C)C(=O)[C@H](Cc2ccccc2)NC(=O)Cn2c(=O)n(CC(=O)N[C@@H](Cc3ccccc3)C(=O)N(C)c3ccc(OC)cc3)c3cc(NC(C)=O)ccc32)cc1 [Example 97] | ≥ 100 µM | 2.6 µM | –
COc1ccc(N(C)C(=O)[C@H](Cc2ccccc2)NC(=O)CN2CCN(CC(=O)N[C@@H](Cc3ccccc3)C(=O)N(C)c3ccc(OC)cc3)C2=O)cc1 [Example 48] | 30.9 µM | 0.17 µM | –
COc1ccc(N(C)C(=O)[C@H](Cc2ccccc2)NC(=O)Cn2c(=O)n(CC(=O)N[C@@H](Cc3ccccc3)C(=O)N(C)c3ccc(OC)cc3)c3cc(F)ccc32)cc1 [Example 75] | 11.5 µM | 0.08 µM | –
C=CCCN(C(=O)[C@H](Cc1ccccc1)NC(=O)NS(=O)(=O)N[C@@H](Cc1ccccc1)C(=O)N(CC=C)c1ccc(OC)nc1)c1ccc(OC)nc1 [Example 223] | ≥ 25 µM | 1.5 µM | –
COc1ccc(N(C)C(=O)[C@H](Cc2cc(F)cc(F)c2)NS(=O)(=O)CS(=O)(=O)N[C@@H](Cc2cc(F)cc(F)c2)C(=O)N(C)c2ccc(OC)cc2)cc1 [Example 201] | 12.5 µM | 0.48 µM | –
COc1ccc(N(C)C(=O)[C@H](Cc2ccccc2)NC(=O)NS(=O)(=O)N[C@@H](Cc2ccccc2)c2nnc(SC)o2)cc1 [Example 6] | ≥ 100 µM | 6.78 µM | –
COc1ccc(N(C)C(=O)[C@H](Cc2ccccc2)NC(=O)c2cc(C(=O)O)cc(C(=O)N[C@@H](Cc3ccccc3)C(=O)N(C)c3ccc(OC)cc3)c2)cc1 [Example 55] | 85.8 µM | 10.1 µM | –

SMILES | CC50 at 4 days [1] | EC50 [2, 3] | EC50 [2, 4]
COc1ccc(N(C)C(=O)[C@H](Cc2ccccc2)NC(=O)Cc2cccc(CC(=O)N[C@@H](Cc3ccccc3)C(=O)N(C)c3ccc(OC)cc3)c2)cc1 [Example 42] | 40.7 µM | 0.85 µM | –
CCN(C(=O)[C@H](Cc1cc(F)cc(F)c1)NC(=O)NS(=O)(=O)N[C@@H](Cc1cc(F)cc(F)c1)C(=O)N(CC)c1ccc2oc(=O)n(CC)c2c1)c1ccc2oc(=O)n(CC)c2c1 [Example 156] | ≥ 50 µM | 24.7 µM | –
C=CCN(C(=O)[C@H](Cc1cc(F)cc(F)c1)NC(=O)c1ccc(F)c(C(=O)N[C@@H](Cc2cc(F)cc(F)c2)C(=O)N(CC=C)c2ccc(OC)cc2)c1)c1ccc(OC)cc1 [Example 139] | ≥ 33.3 µM | 0.04 µM | –
Cc1cc(F)cc(N(C)C(=O)[C@H](Cc2ccccc2)NC(=O)NS(=O)(=O)N[C@@H](Cc2ccccc2)C(=O)N(C)c2cc(C)cc(F)c2)c1 [Example 224] | 46 µM | 3.91 µM | –
C=CCCN(C(=O)[C@H](Cc1cc(F)cc(F)c1)NC(=O)NS(=O)(=O)N[C@@H](Cc1cc(F)cc(F)c1)C(=O)N(CC=C)c1ccc(OC)cc1)c1ccc(OC)cc1 [Example 138] | 12.9 µM | 0.26 µM | –
C=CCN(C(=O)[C@H](Cc1cc(F)cc(F)c1)NC(=O)NS(=O)(=O)N[C@@H](Cc1cc(F)cc(F)c1)C(=O)N(CC=C)c1ccc(OC)nc1)c1ccc(OC)nc1 [Example 194] | 41.9 µM | 0.58 µM | –
COc1ccc(N(C)C(=O)[C@H](Cc2ccccc2)NC(=O)Cc2ccccc2CC(=O)N[C@@H](Cc2ccccc2)C(=O)N(C)c2ccc(OC)cc2)cc1 [Example 38] | 45 µM | 0.55 µM | –
CCCc1ccc(N(C)C(=O)[C@H](Cc2cc(F)cc(F)c2)NC(=O)NS(=O)(=O)N[C@@H](Cc2cc(F)cc(F)c2)C(=O)N(C)c2ccc(CCC)cc2)cc1 [Example 182B] | 13.4 µM | 0.02 µM | –
COc1ccc(N(C)C(=O)[C@H](Cc2ccccc2)NC(=O)COc2nc3ccccc3n(CC(=O)N[C@@H](Cc3ccccc3)C(=O)N(C)c3ccc(OC)cc3)c2=O)cc1 [Example 95] | ≥ 50 µM | 0.21 µM | –
C=CCN(C(=O)[C@H](Cc1cc(F)cc(F)c1)NC(=O)CC(C)(C)CC(=O)N[C@@H](Cc1cc(F)cc(F)c1)C(=O)N(CC=C)c1ccc(OC)cc1)c1ccc(OC)cc1 [Example 171] | ≥ 100 µM | 100 µM | –
COc1ccc(N(C)C(=O)[C@H](Cc2ccccc2)NC(=O)CN2c3ccccc3N(CC(=O)N[C@@H](Cc3ccccc3)C(=O)N(C)c3ccc(OC)cc3)S2(=O)=O)cc1 [Example 27] | ≥ 100 µM | 0.04 µM | –
COc1ccc(N(C)C(=O)[C@H](Cc2ccccc2)NC(=O)c2cc(C(=O)N[C@@H](Cc3ccccc3)C(=O)N(C)c3ccc(OC)cc3)ncn2)cc1 [Example 112] | 1.3 µM | 1.71 µM | –
COc1ccc(N(C)C(=O)[C@H](Cc2ccccc2)NC(=O)CCCC(=O)N[C@@H](Cc2ccccc2)C(=O)N(C)c2ccc(OC)cc2)cc1 [Example 22] | 21.1 µM | 1.31 µM | –
CN(C(=O)[C@H](Cc1cc(F)cc(F)c1)Nc1ccnc(N[C@@H](Cc2cc(F)cc(F)c2)C(=O)N(C)c2ccc3scnc3c2)n1)c1ccc2scnc2c1 [Example 146] | 30.6 µM | 2.86 µM | –
COc1ccc(N(C)C(=O)[C@H](Cc2cc(F)cc(F)c2)NC(=O)CN2c3ccccc3N(CC(=O)N[C@@H](Cc3cc(F)cc(F)c3)C(=O)N(C)c3ccc(OC)nc3)S2(=O)=O)cn1 [Example 197] | 9.3 µM | 0.01 µM | –
COc1ccc(N(C)C(=O)[C@H](Cc2cc(F)cc(F)c2)NC(=O)CN2c3ccccc3N(CC(=O)N[C@@H](Cc3cc(F)cc(F)c3)C(=O)N(C)c3ccc(OC)cc3)S2(=O)=O)cc1 [Example 34] | ≥ 100 µM | 0.01 µM | –
COc1ccc(N(C)C(=O)[C@H](Cc2cc(F)cc(F)c2)NC(=O)C(C)n2c(=O)n(C(C)C(=O)N[C@@H](Cc3cc(F)cc(F)c3)C(=O)N(C)c3ccc(OC)cc3)c3ccccc32)cc1 (single isomer, unassigned) [Example 132] | 7.3 µM | – | 1.94 µM
COc1ccc(NC(=O)[C@H](Cc2ccccc2)NS(=O)(=O)NC(=O)N[C@@H](Cc2ccccc2)C(=O)N(C)c2ccc(OC)cc2)cc1 [Example 12] | 29 µM | 12.4 µM | –
